Experimental data taken from patent publication US20250381274A1 (priority 2022, published 2025).
Where “and” joins values, the source holds several entries; their conditions need not be identical. Equal entries are not always repeated. Entries after “also recorded” stand apart in the source; their conditions may differ. Where two headings read alike, the source gives them in different places.

Key:
corneal buttons = tested on: corneal buttons; parameters: species or system rabbit
Protocol: • 3 rabbits, (n=8 pairs of 3 mm biopsy punched corneal buttons) • Laser Treatments: • Fidelity II, 1069 nm, 450 mW • Focusing: Marker/spark around, not touching the tissue • Objective: ZEISS 40X, NA=0.1463 • Z: increments 20 μm, 5 layers (several intervals) • 1stlayer 15 μm below surface of focus sparking • XY: 10 μm zigzag grid, 3 mm radius circle • With ˜12 gram compression • Motor speed 2.6 mm/s, full circle treatments: ˜25*5 mins • Sample Preparation: • −3 mm biopsy punch (1BT) • not connected to IV system • Prior to LT: 30 mins in 20% w/w Dextran 500 in PBS • 30 mins in 20% w/w ribose in DPBS (˜1.7M) • Post LT: Trypan blue is used to mark endothelium side • Imaged on the same day in DPBS • Overnight storage in DPBS in 4C fridge • 3 hrs prior to indentation, in room temp PBS • Piuma nano-indentation: • For each cornea button, the average of up to 16 indentations are acquired as
• 3 rabbits, (n=10 pairs of 3 mm biopsy punched corneal buttons) • 3 mm biopsy punch • not connected to IV system • Treatment Protocol-1 hr submerged in 20% w/v Ribose for all samples • 1 hr of UV-A lamp irradiation (control was not under UV) • Post Treatment Trypan blue is used to mark endothelium side • Imaged on the same day in DPBS • Overnight storage in DPBS in 4C fridge • 3 hrs prior to indentation, in room temp PBS • Piuma nano-indentation: • For each cornea button, the average of up to 16 indentations are acquired as representative modulus • The average of the representative modulus are presented in appended FIGS. 1-25.
Nano-Indentation: The corneal buttons were stored in PBS in a 4C fridge overnight for hydration equilibrium. Indentations of 5 μm depth using 29-35 μm diameter spherical indenters were performed on the anterior surface of the cornea buttons to acquire 25-second load-relaxation curves. For each button, the average of up to 16 indentations was used as the representative result. The equilibrium modulus and the viscoelastic ratio, defined as equilibrium modulus over instantaneous modulus, were calculated and compared.
Nanoindentation: Indentations were performed on the anterior surface of the cornea buttons. The equilibrium modulus E∞, instantaneous modulus Eo, and the viscoelastic ratio E∞/Eo, were calculated and compared.
After overnight incubation in PBS at 4C to reach equilibrium hydration, corneal buttons in Group A were allowed to return to room temperature the next morning after the respective treatment days while glued to the bottom of a petri-dish with the anterior surface of the corneal button facing upward. A displacement-controlled indenter (Piuma, Optics 11, Amsterdam, The Netherlands) was used to perform micro-indentations on top of the sample surface submerged in PBS; for each sample, multiple tests were performed following an array of 16 equally spaced (4×4) contact points with a spacing of 100 μm to 150 μm, covering roughly a 0.4×0.4 mm^2 area at the center of each corneal button. A spherical glass probe with a 34 μm radius and 0.2 N/m stiffness was used for samples in Group 1A; another spherical glass probe with a 25.5 μm radius and 4.09 N/m stiffness was used for Group 1B, 1C, 1D, and 2C. The indentation process at each contact point was comprised of three consecutive steps of loading Piezo movement of 5 μm for 2 seconds, holding time of 5 s, and unloading for 2 seconds. The load-relaxation curves obtained after indenting each point were then processed using a viscoelastic model to obtain equilibrium modulus and viscoelastic ratio following a fitting algorithm developed by Oyen.

corneal tissues = test: Multiphoton/confocal imaging: autofluorescence and second harmonic generation signal; parameters: species or system rabbit; conditions: anterior 100 μm
From the text: • The grey value of the top 100 μm (11 Z-stacks) of the cornea button was summed; • The average of the grey value summations are presented in appended FIGS. 1-25. • […] • The average of the grey value summations and Representative images at ˜600*600*100 μm in x, y, z are presented in appended FIGS. 1-25. The autofluorescence and second harmonic generation (SHG) signals of the corneal tissues in Group A were investigated to reveal the presence of CxLs and structural changes in collagenous ECM after hydration equilibrium in PBS on the same night of individual treatment days. Imaging was performed with a Nikon TI Eclipse inverted microscope using a Ti: Sapphire laser Chameleon Ultra II at 860 nm as the light source and a Nikon Apo LWD 20× objective for focusing. The emission filter was set at the FITC channel (475-650 nm, peak 525 nm) for autofluorescence signal collection and at the DAPI channel (400-600 nm, peak at 457 nm) for SHG signal collection. The XY scanning area for each sample was 635 μm by 635 μm, and Z scanning was 100 μm deep with 10 μm increments (stack of 11 images per sample). The summation of the average grey value processed in Image J at each layer was used as the representative signal strength for each sample.

[1] = 20% ribose 1 hr + 365 nm UVA lamp 1 hr
[2] = 20% ribose + 400 nm femtosecond laser
[3] = 20% ribose + 1069 nm femtosecond laser
[4] = 20% ribose + 1069 nm femtosecond laser, listed as Ribose
[5] = ribose + 365 nm UVA lamp, listed as Ribose
[6] = ribose + 400 nm femtosecond laser
[7] = ribose + 1069 nm femtosecond laser
[8] = ribose + 1069 nm femtosecond laser, listed as Ribose

O=C[C@H](O)[C@H](O)[C@H](O)CO [ribose]
instantaneous modulus change vs paired control (corneal buttons; [1]): significantly increased
viscoelastic ratio change vs paired control (words) (corneal buttons; [1]): no change; also recorded: no significant E∞/Eo difference; also recorded: No significant changes; also recorded: None of the ROS-Glycation-CxL treatments produced a significant difference
equilibrium modulus change vs paired control (words) (corneal buttons; 20% ribose 1 hr + 365 nm UVA lamp 1 hr, coverslip): significantly increased; also recorded: significantly higher; also recorded: statistically significant differences
equilibrium modulus change vs paired control (words) (corneal buttons; 20% ribose 1 hr + 365 nm UVA lamp 1 hr, coverslip, listed as Ribose): significantly increased
viscoelastic ratio change vs paired control (words) (corneal buttons; 20% ribose 1 hr + 365 nm UVA lamp 1 hr, listed as Ribose): not significantly changed
equilibrium modulus change vs paired control (words) (corneal buttons; [2]): significantly higher; also recorded: statistically significant differences
viscoelastic ratio change vs paired control (words) (corneal buttons; [2]): No significant changes; also recorded: None of the ROS-Glycation-CxL treatments produced a significant difference
equilibrium modulus change vs paired control (words) (corneal buttons; [3]): significantly higher; also recorded: statistically significant differences
instantaneous modulus change vs paired control (corneal buttons; [3]): significantly increased
viscoelastic ratio change vs paired control (words) (corneal buttons; [3]): No significant changes; also recorded: None of the ROS-Glycation-CxL treatments produced a significant difference
equilibrium modulus change vs paired control (words) (corneal buttons; [4]): significantly increased
viscoelastic ratio change vs paired control (words) (corneal buttons; [4]): not significantly changed
equilibrium modulus (corneal buttons; Group 1A: 20% ribose PBS 1 hr, then 1069 nm femtosecond laser 450 mW, coverslip pressed): 25 kPa and 26.7 kPa
equilibrium modulus (corneal buttons; Group 1B: 20% ribose PBS 1 hr, then 400 nm femtosecond laser, coverslip pressed): 60 kPa and 63.2 kPa
equilibrium modulus (corneal buttons; Group 1C: 20% ribose PBS 1 hr, then 365 nm UVA lamp 1 hr, coverslip pressed): 100 kPa and 115.3 kPa
equilibrium modulus, 1.5 hr vs 3 hr irradiation (corneal buttons; Group 2C: ribose + 365 nm UVA lamp 1.5 hours vs 3 hours): no significant difference in mechanical properties; also recorded: no different in equilibrium modulus
viscoelastic ratio, 3 hr vs 1.5 hr irradiation (corneal buttons; Group 2C: ribose + 365 nm UVA lamp 3 hours vs 1.5 hours): significantly higher viscoelastic ratio; also recorded: significant difference
equilibrium modulus, fold of control's modulus (corneal buttons; ribose + 400 nm laser at 100 mW vs ribose-only control): ~4.6 fold
equilibrium modulus, fold of control's modulus (corneal buttons; ribose + 1060 nm laser at 450 mW vs ribose-only control): ~3.8 fold
equilibrium modulus, fold of paired control modulus (corneal buttons; ribose + one-hour 365 nm UVA lamp vs ribose-only control): ~8.2 fold
equilibrium modulus (corneal buttons; ribose-only paired controls, no light exposure): around 10 kPa
autofluorescence signal intensity change vs paired control (words) (corneal tissues; ribose + 365 nm UVA lamp): increased significantly; also recorded: slightly increased; also recorded: Statistical significance
second harmonic generation signal intensity change vs paired control (words) (corneal tissues; ribose + 365 nm UVA lamp): decreased significantly; also recorded: statistically significant decreases; also recorded: Statistical significance
autofluorescence signal intensity change vs paired control (words) (corneal tissues; [5]): increased
second harmonic generation signal intensity change vs paired control (words) (corneal tissues; [5]): decreased
autofluorescence signal intensity change vs paired control (words) (corneal tissues; [6]): increased significantly; also recorded: slightly increased; also recorded: Statistical significance
second harmonic generation signal intensity change vs paired control (words) (corneal tissues; [6]): decreased significantly; also recorded: statistically significant decreases; also recorded: Statistical significance
autofluorescence signal intensity change vs paired control (words) (corneal tissues; [7]): increased significantly; also recorded: slightly increased; also recorded: Statistical significance
second harmonic generation signal intensity change vs paired control (words) (corneal tissues; [7]): decreased significantly; also recorded: statistically significant decreases; also recorded: Statistical significance
autofluorescence signal intensity change vs paired control (words) (corneal tissues; [8]): increased
second harmonic generation signal intensity change vs paired control (words) (corneal tissues; [8]): decreased
